Source: US20200352889A1, “CYSTATHIONINE COMPOSITIONS AND METHODS OF TREATMENT FOR HEALTH CONDITIONS” (THE REGENTS OF THE UNIVERSITY OF COLORADO, A BODY CORPORATE, priority 2011, published 2020)

How the values were obtained:
[1] = target: T1, CGL (Mus musculus, UniProt Q8VCN5); test: Daily injection of PPG in WT mice, plasma cystathionine, Hcy, methionine and cysteine; format: in vivo
T1 construct: endogenous in cells; host or cells: C57BL/6J wild-type mice (whole animal, in vivo)
Method: It is believed that the longevity of this cystathionine accumulation with repeated injections of PPG over time in mice has not been properly examined. Consequently, daily injections of PPG were given to WT mice (n=7) each morning over a period of 4 days. Plasma samples were taken from these mice in the evening of each day by non-lethal tail bleed and the levels of cystathionine, Hcy, methionine and cysteine were determined (FIG. 4). Inactivation of CGL was observed and was accompanied by a 56-fold increase in the plasma level of cystathionine on day 1. […] Cysteine levels subsequently returned to near normal levels as the effects of the PPG treatment diminished.
Propensity for hepatic steatosis was examined in HO and wild type control mice using a methionine-choline deficient amino acid defined and iron supplemented diet (#518810 Dyets Inc., Bethlehem, Pa.)) and an isocaloric amino acid defined Lombardi choline sufficient diet with methionine control diet (518754, Dyets Inc., Bethlehem, Pa.) for 19 days as described previously (7). Experimental hypercystathionemia was induced by IP injection of the CGL inactivator PPG (50 mg·day-1·kg-1) as described previously (8). ER stress was induced in mice by a single IP injection with tunicamycin at 0.5 mg/kg body weight (volume <=1.0 ml). Control mice were sham treated by injection with an equal volume of PBS (9,10).
Determination of plasma levels of methionine cycle metabolites was performed as described previously (11).
Previous work by Abeles and Walsh synthesized and tested a range of acetylenic substrates capable of irreversible inactivation of CGL. […] For our purposes this method has the additional benefit of allowing us to investigate the possible protective effects of elevated cystathionine in isolation from its role as a cysteine donor. To our knowledge, the longevity of this cystathionine accumulation with repeated injections of PPG over time in mice has not been examined. Daily injections of PPG to WT mice were given (n=7) each morning over a period of 4 days. Plasma samples were taken from these mice in the evening of each day by non-lethal tail bleed and the levels of cystathionine, Hcy, methionine and cysteine were determined (FIG. 4). It was observed that inactivation of CGL was accompanied by a 56-fold increase in the plasma level of cystathionine on day 1. […] Cysteine levels subsequently returned to near normal levels as the effects of the PPG treatment diminished. These experiments allowed us to define an optimal time frame for examining the possible protective effects of PPG mediated cystathionine accumulation in WT mice. The effect of PPG on liver health was assessed by determining ALT values before PPG treatment and at each subsequent time point studied.

[2] = test system: a23 cells; test: Tunicamycin-induced cell death, LDH release, transsulfuration negative a23 cells; format: cell-based, Chinese hamster; conditions: CBS and CGL negative, p=0.7301
Description: However, examination of a direct effect of exogenously added cystathionine is not currently possible in a whole animal model because of complications with the compounds solubility and rapid kinetics of its excretion. In order to investigate the direct effects of cystathionine against ER stress-induced cell death, the cytotoxicity of tunicamycin in the human embryonic kidney cell line 293AD and the human hepatoma cell line HepG2 in the presence and absence of both PPG and exogenously added cystathionine was examined. Preliminary experiments confirmed that both of these cell lines express both CBS and CGL (data not shown). In order to investigate the possible protective effects of cystathionine in the absence of transsulfuration, these experiments were repeated with the CBS and CGL negative Chinese hamster fibroblast line a23 (6).
Cells were seeded in triplicate at ˜75% confluence and pre-treated with either PPG) (5 mM), Cystathionine (1 mM) or with just complete media (DMEM, 10% FBS) as a control. […] To further evaluate a role for cystathionine in resisting the induction of cell death by tunicamycin, cell lysis was quantified by assaying lactate dehydrogenase (LDH) release. The enzyme activity was determined spectrophotometrically and the amount of enzyme leak was expressed as a percentage of the LDH activity observed in untreated control cells. […]

[3] = test system: hepatic CGL; conditions: I.P. injection; cited from earlier work
[4] = daily PPG IP, declined back to normal as PPG efficacy diminished

T1 sequence (Q8VCN5 whole entry): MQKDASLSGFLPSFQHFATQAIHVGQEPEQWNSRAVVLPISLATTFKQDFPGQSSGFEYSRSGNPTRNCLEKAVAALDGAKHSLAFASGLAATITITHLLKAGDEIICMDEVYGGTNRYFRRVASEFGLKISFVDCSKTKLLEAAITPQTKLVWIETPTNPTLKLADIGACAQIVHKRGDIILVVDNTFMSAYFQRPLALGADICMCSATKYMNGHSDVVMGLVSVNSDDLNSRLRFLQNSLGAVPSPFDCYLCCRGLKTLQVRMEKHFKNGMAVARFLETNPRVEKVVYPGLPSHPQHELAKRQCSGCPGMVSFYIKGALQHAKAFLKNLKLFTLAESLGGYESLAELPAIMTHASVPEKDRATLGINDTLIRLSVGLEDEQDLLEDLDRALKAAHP

C#CCC(N)C(=O)O (racemic) [PPG, D,L-2-amino-4-pentynoic acid]
increase in the plasma level of cystathionine ([1]; daily PPG IP 50 mg/kg/day, day 1, vs untreated animals): 56 fold | increase in the plasma level of cystathionine ([1]; daily PPG IP, day 3): 30 fold | increase in the plasma level of cystathionine ([1]; daily PPG IP, day 4, vs untreated animals): 8 fold | plasma methionine [1, 4]: relatively mild elevation | plasma total Hcy (tHcy) [1, 4]: relatively mild elevation | plasma cysteine levels ([1]; daily PPG IP, first and second days): concomitant decrease | plasma cystathionine accumulation ([1]; daily PPG IP, second day): maximal accumulation persisted | cytoprotection against tunicamycin induced cell death [2]: no significant cytoprotection | duration of cystathionine accumulation [3]: approximately one day | inactivation of hepatic CGL activity [3]: rapidly inactivate | time to accumulation of cystathionine [3]: within one hour
